Data: patent publication US10913757B2, “Hydroxycinnamic derivatives, methods and uses thereof” (UNIVERSIDADE DO PORTO, priority 2016, dated 2021)

Tests used:
[1] = test system: rat liver mitochondria (RLM); assay: Mitochondrial respiration of isolated RLM (Clark-type oxygen electrode); format: biochemical; details: for effect on state 3 respiration: all tested concentrations (2.5-10 μM), FIG. 6B-H
Experimental: (§1) In an embodiment, and as an example, AntiOxCINs and MitoQ toxicity effects on the mitochondrial bioenergetics, namely on RLM ΔΨ and mitochondrial respiration parameters, were measured. The […] represents the main component of the electrochemical gradient generated by mitochondrial respiration and accounts for more than 90% of the total available energy. For mitochondrial respiration assays, glutamate/malate (for complex I) and succinate (for complex II) were used as substrates. In addition, the mitochondrial oxidative phosphorylation coupling index, known as respiratory control ratio (RCR, state 3/state 4 respiration) and ADP/O index (the coupling between ATP synthesis and oxygen consumption) were also calculated. AntiOxCINs and MitoQ were tested at antioxidant-relevant concentrations, with 10 μM being the highest concentration.
(§2) In an embodiment, the evaluation of AntiOxCINs functional mitochondrial toxicity profile was performed in rat liver mitochondria (RLM). […] The protein concentration was determined by the biuret assay using BSA as a standard.
In an embodiment, the evaluation of AntiOxCINs effect on mitochondrial respiration was performed as follows: the respiration of isolated RLM was evaluated polarographically with a Clark-type oxygen electrode, connected to a suitable recorder in a 1 mL thermostated water-jacketed chamber with magnetic stirring, at 37° C.^1. […] Increasing concentrations of AntiOxCINs (2.5-10 μM) were added to the reaction medium containing respiratory substrates glutamate/malate (10 mM and 5 mM respectively) or succinate (5 mM) and RLM (1 mg) and allowed to incubate for a 5 min period prior to the assay. State 2 was considered as the respiration during the 5 min incubation time with AntiOxCINs. […] State 4 was determined after ADP phosphorylation finished. Subsequent addition of oligomycin (2 μg/ml) inhibited ATP-synthase and originated the oligomycin-inhibition respiration state. Finally, 1 μM FCCP was added to induce uncoupled respiration.

[2] = Lipophilic properties by electrochemistry at ITIES (transfer potential); format: physicochemical; details: aqueous phase to 1,6-dichlorohexane, DPV, C=0.32 mM
Experimental: In an embodiment, AntiOxCINs lipophilic properties were evaluated at physiological pH by electrochemistry. The used technique is often used to mimic the transfer of ionic drugs through biological membranes as the process occurs at the interface between two immiscible electrolyte solutions (ITIES). The transfer potential (Etr) at which the ionic drug, initially present in the aqueous phase (C=0.32 mM), is transferred to the 1,6-dichlorohexane (DCH) phase is measured by differential pulse voltammetry (DPV). In the ITIES model, the transfer potential (Etr) becomes less positive with the increasing of the drug lipophilic character.
In an embodiment, the electrochemical analytical data was obtained using a computer controlled potentiostat Autolab PGSTAT302N (Metrohm Autolab, Utrecht, Netherlands). Generally, cyclic voltammetry (CV) data was acquired at a scan rate of 50 mVs^−1. Differential pulse voltammetry (DPV) results were acquired at a step potential of 4 mV, pulse amplitude of 50 mV and scan rate of 8 mVs^−1. The electrochemical signals were monitored by the General Purpose Electrochemical System (GPES) version 4.9, software package. All electrochemical experiments were performed at room temperature in an electrochemical cell that was placed in a Faraday cage in order to minimize the contribution of background noise to the analytical signal.
In an embodiment, the process of evaluation of AntiOxCINs redox properties was conducted as follows: stock solutions of each compound (10 mM) were prepared by dissolving the appropriate amount in ethanol. The voltammetric working solutions were prepared in the electrochemical cell, at a final concentration of 0.1 mM. The […] supporting electrolyte was prepared by diluting […] to 100 mL. Voltammetric data was acquired in a three-electrode system consisting of a glassy carbon electrode (GCE, d=2 mm) as working electrode, a counter electrode of platinum wire and a saturated Ag/AgCl reference electrode. In an embodiment, the evaluation of AntiOxCINs lipophilic properties was performed as follows: the electrochemical cell was a four-electrode system with arrays of micro liquid-liquid interfaces (μlTIES) containing two Ag/AgCl reference electrodes and two counter electrodes of Pt, one in each phase. The microporous membrane was sealed with a fluorosilicone sealant (Dow Corning 730) onto a glass cylinder which was filled with 4.0 mL of the aqueous phase, where the aliquots of AntiOxCINs solutions were added. The membrane was then immersed into the organic phase contained in the cell. The organic phase reference solution (a 2 mM BTPPACI+2 mM NaCl aqueous solution) was mechanically stabilized The aqueous supporting electrolyte solution was a Tris-HCl buffer 10 mM pH 7.0.

[3] = test system: rat liver mitochondria (RLM); assay: Mitochondrial transmembrane electric potential (ΔΨ) of RLM, safranine fluorescence; format: biochemical; details: for ΔΨ in succinate-energized mitochondria: AntiOxCIN6 above 5 μM, AntiOxCIN7 10 μM
Experimental: as §1, §2
Then, 1 μM FCCP was added at the end of all experiments to depolarize mitochondria. ΔΨ was calculated using a calibration curve obtained when RLM were incubated in a K^+-free reaction medium containing 200 mM sucrose, 1 mM NaH2PO4, 10 mM Tris (pH 7.4) and 10 μM EGTA, supplemented with 0.4 μg valinomicin. […] “Repolarization” corresponded to the recovery of membrane potential after the complete phosphorylation of ADP added. Lag phase reflected the time required to phosphorylate the added ADP. […] Data are means±SEM of five independent experiments.

SMILES | effect on state 3 respiration [1] | ADP/O ([1]; glutamate/malate, 2.5 μM) | RCR (respiratory control ratio, state 3/state 4) ([1]; glutamate/malate, 2.5 μM) | ADP/O ([1]; glutamate/malate, 5 μM) | RCR (respiratory control ratio, state 3/state 4) ([1]; glutamate/malate, 5 μM) | ADP/O ([1]; glutamate/malate, 10 μM) | RCR (respiratory control ratio, state 3/state 4) ([1]; glutamate/malate, 10 μM) | ADP/O ([1]; succinate, 2.5 μM) | RCR (respiratory control ratio, state 3/state 4) ([1]; succinate, 2.5 μM) | ADP/O ([1]; succinate, 5 μM) | RCR (respiratory control ratio, state 3/state 4) ([1]; succinate, 5 μM) | ADP/O ([1]; succinate, 10 μM) | RCR (respiratory control ratio, state 3/state 4) ([1]; succinate, 10 μM) | Etr (transfer potential) [2] [V] | initial slight hyperpolarization ([3]; 2.5 μM) [mV] | ADP-induced depolarization (ΔΨ in - mV) ([3]; glutamate/malate, 2.5 μM) [mV] | Lag Phase ([3]; glutamate/malate, 2.5 μM) [s] | Maximum potential (ΔΨ in - mV) ([3]; glutamate/malate, 2.5 μM) [mV] | Repolarization Potential (ΔΨ in - mV) ([3]; glutamate/malate, 2.5 μM) [mV] | ADP-induced depolarization (ΔΨ in - mV) ([3]; glutamate/malate, 5 μM) [mV] | other results
CS(=O)(=O)[O-].O=C(/C=C/c1cc(O)c(O)c(O)c1)NCCCCCCCC[P+](c1ccccc1)(c1ccccc1)c1ccccc1 [AntiOxCIN5, (E)-(8-(3-(3,4,5-trihydroxyphenyl)acrylamido)octyl)triphenylphosphonium methanesulfonate] | increase | 2.4 ± 0.1 | 3.7 ± 0.4 | 2.5 ± 0.1 | 3.7 ± 0.4 | 2.5 ± 0.1 | 3.2 ± 0.1 | 1.6 ± 0.1 | 4.2 ± 0.4 | 1.5 ± 0.1 | 4.4 ± 0.8 | 1.6 ± 0.1 | 4.0 ± 0.8 | 0.423 | 25 | 207.5 ± 6.1 | 74.4 ± 10.7 | 249.8 ± 5.4 | 244.7 ± 5.9 | 207.5 ± 5.6 | Lag Phase ([3]; glutamate/malate, 5 μM): 69.8 ± 13.3 s; Maximum potential (ΔΨ in - mV) ([3]; glutamate/malate, 5 μM): 244.7 ± 7.0 mV; Repolarization Potential (ΔΨ in - mV) ([3]; glutamate/malate, 5 μM): 236.5 ± 6.8 mV; ADP-induced depolarization (ΔΨ in - mV) ([3]; glutamate/malate, 10 μM): 184.6 ± 18.7 mV; Lag Phase ([3]; glutamate/malate, 10 μM): 53.2 ± 7.6 s; Maximum potential (ΔΨ in - mV) ([3]; glutamate/malate, 10 μM): 215.1 ± 22.3 mV; Repolarization Potential (ΔΨ in - mV) ([3]; glutamate/malate, 10 μM): 199.9 ± 26.0 mV; ADP-induced depolarization (ΔΨ in - mV) ([3]; succinate, 2.5 μM): 177.2 ± 7.7 mV; Lag Phase ([3]; succinate, 2.5 μM): 80.2 ± 11.8 s; Maximum potential (ΔΨ in - mV) ([3]; succinate, 2.5 μM): 196.2 ± 8.6 mV; Repolarization Potential (ΔΨ in - mV) ([3]; succinate, 2.5 μM): 190.6 ± 7.8 mV; ADP-induced depolarization (ΔΨ in - mV) ([3]; succinate, 5 μM): 173.6 ± 6.8 mV; Lag Phase ([3]; succinate, 5 μM): 67.2 ± 13.4 s; Maximum potential (ΔΨ in - mV) ([3]; succinate, 5 μM): 190.1 ± 6.8 mV; Repolarization Potential (ΔΨ in - mV) ([3]; succinate, 5 μM): 184.0 ± 7.1 mV; ADP-induced depolarization (ΔΨ in - mV) ([3]; succinate, 10 μM): 162.2 ± 7.7 mV; Lag Phase ([3]; succinate, 10 μM): 58.4 ± 10.2 s; Maximum potential (ΔΨ in - mV) ([3]; succinate, 10 μM): 180.8 ± 4.0 mV; Repolarization Potential (ΔΨ in - mV) ([3]; succinate, 10 μM): 168.4 ± 9.3 mV
CS(=O)(=O)[O-].O=C(/C=C/c1ccc(O)c(O)c1)NCCCCCCCCCC[P+](c1ccccc1)(c1ccccc1)c1ccccc1 [AntiOxCIN6, (E)-(10-(3-(3,4-dihydroxyphenyl)acrylamido)decyl)triphenylphosphonium methanesulfonate] | increase | 2.5 ± 0.1 | 3.1 ± 0.3 | 2.5 ± 0.2 | 3.3 ± 0.2 | 2.3 ± 0.1 | 2.6 ± 0.1 | 1.5 ± 0.1 | 3.7 ± 0.6 | 1.5 ± 0.1 | 3.2 ± 0.3 | 1.6 ± 0.11 | 2.6 ± 0.3 | 0.291 | 10 | 202.5 ± 5.7 | 73.2 ± 8.8 | 237.9 ± 5.9 | 233.3 ± 6.5 | 197.9 ± 5.0 | ΔΨ in succinate-energized mitochondria [3]: significant decrease of ΔΨ; Lag Phase ([3]; glutamate/malate, 5 μM): 75.2 ± 12.5 s; Maximum potential (ΔΨ in - mV) ([3]; glutamate/malate, 5 μM): 227.5 ± 6.5 mV; Repolarization Potential (ΔΨ in - mV) ([3]; glutamate/malate, 5 μM): 220.7 ± 6.2 mV; ADP-induced depolarization (ΔΨ in - mV) ([3]; glutamate/malate, 10 μM): 174.2 ± 16.8 mV; Lag Phase ([3]; glutamate/malate, 10 μM): 47.8 ± 8.7 s; Maximum potential (ΔΨ in - mV) ([3]; glutamate/malate, 10 μM): 200.5 ± 16.80 mV; Repolarization Potential (ΔΨ in - mV) ([3]; glutamate/malate, 10 μM): 185.3 ± 20.8 mV; ADP-induced depolarization (ΔΨ in - mV) ([3]; succinate, 2.5 μM): 166.8 ± 6.1 mV; Lag Phase ([3]; succinate, 2.5 μM): 77.8 ± 11.2 s; Maximum potential (ΔΨ in - mV) ([3]; succinate, 2.5 μM): 181.9 ± 6.2 mV; Repolarization Potential (ΔΨ in - mV) ([3]; succinate, 2.5 μM): 177.7 ± 4.5 mV; ADP-induced depolarization (ΔΨ in - mV) ([3]; succinate, 5 μM): 167.1 ± 5.7 mV; Lag Phase ([3]; succinate, 5 μM): 83.4 ± 11.5 s; Maximum potential (ΔΨ in - mV) ([3]; succinate, 5 μM): 178.3 ± 4.7 mV; Repolarization Potential (ΔΨ in - mV) ([3]; succinate, 5 μM): 178.1 ± 5.1 mV; ADP-induced depolarization (ΔΨ in - mV) ([3]; succinate, 10 μM): 143.6 ± 11.0 mV; Lag Phase ([3]; succinate, 10 μM): 62.2 ± 11.2 s; Maximum potential (ΔΨ in - mV) ([3]; succinate, 10 μM): 151.7 ± 9.3 mV; Repolarization Potential (ΔΨ in - mV) ([3]; succinate, 10 μM): 149.0 ± 11.2 mV
CS(=O)(=O)[O-].O=C(/C=C/c1cc(O)c(O)c(O)c1)NCCCCCCCCCC[P+](c1ccccc1)(c1ccccc1)c1ccccc1 [AntiOxCIN7, (E)-(10-(3-(3,4,5-trihydroxyphenyl)acrylamido)decyl)triphenylphosphonium methanesulfonate] | increase | 2.8 ± 0.3 | 3.6 ± 0.2 | 2.4 ± 0.1 | 3.5 ± 0.3 | 2.6 ± 0.1 | 3.3 ± 0.3 | 1.8 ± 0.2 | 4.1 ± 0.4 | 1.8 ± 0.2 | 3.1 ± 0.2 | 1.7 ± 0.2 | 3.7 ± 0.3 | 0.377 | 25 | 212.2 ± 7.9 | 73.4 ± 8.4 | 251.8 ± 8.7 | 248.3 ± 8.3 | 212.6 ± 3.2 | ΔΨ in succinate-energized mitochondria [3]: significant decrease of ΔΨ; Lag Phase ([3]; glutamate/malate, 5 μM): 71.0 ± 10.7 s; Maximum potential (ΔΨ in - mV) ([3]; glutamate/malate, 5 μM): 248.1 ± 3.3 mV; Repolarization Potential (ΔΨ in - mV) ([3]; glutamate/malate, 5 μM): 243.5 ± 5.0 mV; ADP-induced depolarization (ΔΨ in - mV) ([3]; glutamate/malate, 10 μM): 197.1 ± 11.8 mV; Lag Phase ([3]; glutamate/malate, 10 μM): 58.6 ± 5.4 s; Maximum potential (ΔΨ in - mV) ([3]; glutamate/malate, 10 μM): 232.1 ± 9.2 mV; Repolarization Potential (ΔΨ in - mV) ([3]; glutamate/malate, 10 μM): 212.6 ± 18.4 mV; ADP-induced depolarization (ΔΨ in - mV) ([3]; succinate, 2.5 μM): 183.8 ± 6.0 mV; Lag Phase ([3]; succinate, 2.5 μM): 80.0 ± 14.9 s; Maximum potential (ΔΨ in - mV) ([3]; succinate, 2.5 μM): 205.3 ± 7.3 mV; Repolarization Potential (ΔΨ in - mV) ([3]; succinate, 2.5 μM): 199.4 ± 7.1 mV; ADP-induced depolarization (ΔΨ in - mV) ([3]; succinate, 5 μM): 176.2 ± 8.7 mV; Lag Phase ([3]; succinate, 5 μM): 76.0 ± 9.6 s; Maximum potential (ΔΨ in - mV) ([3]; succinate, 5 μM): 191.1 ± 9.0 mV; Repolarization Potential (ΔΨ in - mV) ([3]; succinate, 5 μM): 186.8 ± 7.5 mV; ADP-induced depolarization (ΔΨ in - mV) ([3]; succinate, 10 μM): 163.6 ± 3.2 mV; Lag Phase ([3]; succinate, 10 μM): 65.0 ± 8.7 s; Maximum potential (ΔΨ in - mV) ([3]; succinate, 10 μM): 176.9 ± 3.1 mV; Repolarization Potential (ΔΨ in - mV) ([3]; succinate, 10 μM): 171.0 ± 5.0 mV
